Test results published in article PMC5218480 (PLoS ONE, 2017).

Tested on: MV-4-11 cells
Experiment: Gene expression microarray analysis (Affymetrix PrimeView) and GSEA
Format: cell-based, human
Set-up: RFU PODN (11730768_x_at) / Fold change /veh PODN (11730768_x_at) / RFU LINC00158 (11744669_a_at) / Fold change /veh LINC00158 (11744669_a_at) / RFU DUSP10 (11751237_a_at) / Fold change /veh DUSP10 (11751237_a_at) / RFU ID3 (11757404_x_at) / Fold change /veh ID3 (11757404_x_at) / RFU PLEKHG5 (11737974_s_at) / Fold change /veh PLEKHG5 (11737974_s_at) / RFU LRRC4B (11730491_at) / Fold change /veh LRRC4B (11730491_at) / RFU GIMAP4 (11747438_a_at) / Fold change /veh GIMAP4 (11747438_a_at) / RFU KRT8 (11758183_x_at) / Fold change /veh KRT8 (11758183_x_at) / RFU CNN1 (11734310_a_at) / Fold change /veh CNN1 (11734310_a_at) / RFU VPS37D (11726825_at) / Fold change /veh VPS37D (11726825_at) / RFU C10orf10 (11716522_x_at) / Fold change /veh C10orf10 (11716522_x_at) / RFU KIR2DL2 /// KIR2DL4 /// KIR2DL5A /// KIR2DL5B /// KIR2DS1 /// KIR2DS2 /// KIR2DS3 /// KIR2DS4 /// KIR3DL3 /// KIR3DL3 /// KIR3DS1 (11738374_at) / Fold change /veh KIR2DL2 /// KIR2DL4 /// KIR2DL5A /// KIR2DL5B /// KIR2DS1 /// KIR2DS2 /// KIR2DS3 /// KIR2DS4 /// KIR3DL3 /// KIR3DL3 /// KIR3DS1 (11738374_at) / RFU C1QL1 (11718748_at) / Fold change /veh C1QL1 (11718748_at) / RFU TMPRSS4 (11747572_a_at) / Fold change /veh TMPRSS4 (11747572_a_at) / RFU HAMP (11756126_x_at) / Fold change /veh HAMP (11756126_x_at) / RFU RNFT2 (11725882_a_at) / Fold change /veh RNFT2 (11725882_a_at) / RFU NR4A2 (11747474_a_at) / Fold change /veh NR4A2 (11747474_a_at) / RFU ABCC12 (11746883_a_at) / Fold change /veh ABCC12 (11746883_a_at) / RFU TMEM136 (11760407_x_at) / Fold change /veh TMEM136 (11760407_x_at) / RFU CLDN22 /// WWC2 (11732394_at) / Fold change /veh CLDN22 /// WWC2 (11732394_at) / RFU HLA-DPB1 (11760878_x_at) / Fold change /veh HLA-DPB1 (11760878_x_at) / RFU SPINT1 (11716480_a_at) / Fold change /veh SPINT1 (11716480_a_at) / RFU GAP43 (11754022_s_at) / Fold change /veh GAP43 (11754022_s_at) / RFU A4GNT (11735810_at) / Fold change /veh A4GNT (11735810_at) / RFU PRB3 (11715151_x_at) / Fold change /veh PRB3 (11715151_x_at) / RFU TUBB4B (11761932_at) / Fold change /veh TUBB4B (11761932_at) / RFU CAPN14 (11732068_a_at) / Fold change /veh CAPN14 (11732068_a_at) / RFU TMCC2 (11721928_a_at) / Fold change /veh TMCC2 (11721928_a_at) / RFU IRGQ (11745062_a_at) / Fold change /veh IRGQ (11745062_a_at) / RFU FAM174B (11720279_a_at) / Fold change /veh FAM174B (11720279_a_at) / RFU TMPRSS4 (11748680_a_at) / Fold change /veh TMPRSS4 (11748680_a_at) / RFU FAM212B (11763350_a_at) / Fold change /veh FAM212B (11763350_a_at) / RFU PLEKHG5 (11743358_a_at) / Fold change /veh PLEKHG5 (11743358_a_at) / RFU ZSCAN30 (11745921_a_at) / Fold change /veh ZSCAN30 (11745921_a_at) / RFU CMKLR1 (11741424_a_at) / Fold change /veh CMKLR1 (11741424_a_at) / RFU LOC101060620 /// MAPK8IP1 (11723275_at) / Fold change /veh LOC101060620 /// MAPK8IP1 (11723275_at) / RFU SPTSSB (11747773_x_at) / Fold change /veh SPTSSB (11747773_x_at) / RFU PRSS12 (11739890_at) / Fold change /veh PRSS12 (11739890_at) / RFU BIN1 (11741810_x_at) / Fold change /veh BIN1 (11741810_x_at) / RFU WNT11 (11732464_a_at) / Fold change /veh WNT11 (11732464_a_at) / RFU C10orf10 (11716521_a_at) / Fold change /veh C10orf10 (11716521_a_at) / RFU C5orf56 (11738089_at) / Fold change /veh C5orf56 (11738089_at) / RFU CYB561 (11721691_x_at) / Fold change /veh CYB561 (11721691_x_at) / RFU ANKRD19P (11752326_a_at) / Fold change /veh ANKRD19P (11752326_a_at) / RFU OR2T12 /// OR2T33 /// OR2T8 (11738714_s_at) / Fold change /veh OR2T12 /// OR2T33 /// OR2T8 (11738714_s_at) / RFU VCAN (11748164_a_at) / Fold change /veh VCAN (11748164_a_at) / RFU JSRP1 (11732532_at) / Fold change /veh JSRP1 (11732532_at) / RFU KRTAP10-11 (11738290_x_at) / Fold change /veh KRTAP10-11 (11738290_x_at) / RFU MYO3A (11730013_a_at) / Fold change /veh MYO3A (11730013_a_at) / RFU EBF3 (11725865_a_at) / Fold change /veh EBF3 (11725865_a_at) / RFU CAMK2N1 (11719241_x_at) / Fold change /veh CAMK2N1 (11719241_x_at) / RFU C5orf56 (11738088_a_at) / Fold change /veh C5orf56 (11738088_a_at) / RFU OLFML3 (11715873_a_at) / Fold change /veh OLFML3 (11715873_a_at) / RFU LOC100653217 /// NTM (11731650_a_at) / Fold change /veh LOC100653217 /// NTM (11731650_a_at) / RFU MAPK11 (11762145_a_at) / Fold change /veh MAPK11 (11762145_a_at) / RFU FIZ1 (11724087_x_at) / Fold change /veh FIZ1 (11724087_x_at) / RFU OASL (11726364_x_at) / Fold change /veh OASL (11726364_x_at) / RFU SOX15 (11748057_x_at) / Fold change /veh SOX15 (11748057_x_at) / RFU CD79A (11719716_a_at) / Fold change /veh CD79A (11719716_a_at) / RFU HIST1H1D (11736915_at) / Fold change /veh HIST1H1D (11736915_at) / RFU CASKIN2 (11723855_a_at) / Fold change /veh CASKIN2 (11723855_a_at) / RFU LOC730098 (11760151_x_at) / Fold change /veh LOC730098 (11760151_x_at) / RFU OR4N2 (11742367_at) / Fold change /veh OR4N2 (11742367_at) / RFU PRRT2 (11749266_a_at) / Fold change /veh PRRT2 (11749266_a_at) / RFU SNX32 (11753110_a_at) / Fold change /veh SNX32 (11753110_a_at) / RFU CDHR5 (11726645_a_at) / Fold change /veh CDHR5 (11726645_a_at) / RFU RCAN1 (11760418_a_at) / Fold change /veh RCAN1 (11760418_a_at) / RFU FAM167A (11723789_a_at) / Fold change /veh FAM167A (11723789_a_at) / RFU FAM26E (11764081_at) / Fold change /veh FAM26E (11764081_at) / RFU ISYNA1 (11749810_s_at) / Fold change /veh ISYNA1 (11749810_s_at) / RFU ACY1 (11761880_at) / Fold change /veh ACY1 (11761880_at) / RFU 11764098_at / Fold change /veh 11764098_at / RFU SAMD14 (11745864_x_at) / Fold change /veh SAMD14 (11745864_x_at) / RFU NPB (11741838_a_at) / Fold change /veh NPB (11741838_a_at) / RFU TMPRSS6 (11731388_a_at) / Fold change /veh TMPRSS6 (11731388_a_at) / RFU KRTAP10-2 (11738614_at) / Fold change /veh KRTAP10-2 (11738614_at) / RFU ARHGAP8 /// PRR5-ARHGAP8 (11727945_x_at) / Fold change /veh ARHGAP8 /// PRR5-ARHGAP8 (11727945_x_at) / RFU KRTAP5-7 /// NADSYN1 (11734609_at) / Fold change /veh KRTAP5-7 /// NADSYN1 (11734609_at) / RFU RASL12 (11751679_a_at) / Fold change /veh RASL12 (11751679_a_at) / RFU CDKN2B (11736163_a_at) / Fold change /veh CDKN2B (11736163_a_at) / RFU PRF1 (11729649_at) / Fold change /veh PRF1 (11729649_at) / RFU, ZNF638 /// ZNF638-IT1 / Fold change vs veh, ZNF638 /// ZNF638-IT1 / RFU, PANK3 / Fold change vs veh, PANK3 / RFU, SH3YL1 / Fold change vs veh, SH3YL1 / RFU, ZEB2 / Fold change vs veh, ZEB2 / RFU, NRIP1 / Fold change vs veh, NRIP1 / RFU, PTTG1IP / Fold change vs veh, PTTG1IP / RFU, CAPN2 / Fold change vs veh, CAPN2 / RFU, MED14 / Fold change vs veh, MED14 / RFU, SNORA58 / Fold change vs veh, SNORA58 / RFU, C1orf63 / Fold change vs veh, C1orf63 / RFU, LRRFIP1 / Fold change vs veh, LRRFIP1 / RFU, NDUFAF7 / Fold change vs veh, NDUFAF7 / RFU, SLC12A2 / Fold change vs veh, SLC12A2 / RFU, IBTK / Fold change vs veh, IBTK / RFU, ESF1 / Fold change vs veh, ESF1 / Fold change vs veh, TMEM50B / RFU, TAOK1 / Fold change vs veh, TAOK1 / RFU, ACBD3 / Fold change vs veh, ACBD3 / RFU, TMA16 / Fold change vs veh, TMA16 / RFU, RWDD3 / Fold change vs veh, RWDD3 / RFU, BCAT1 / Fold change vs veh, BCAT1 / RFU, EDEM3 / Fold change vs veh, EDEM3 / RFU, TMEM33 / Fold change vs veh, TMEM33 / RFU, WDR75 / Fold change vs veh, WDR75 / RFU, AHCTF1 / Fold change vs veh, AHCTF1 / RFU, TFRC / Fold change vs veh, TFRC / RFU, ZDHHC17 / Fold change vs veh, ZDHHC17 / RFU, NOM1 / Fold change vs veh, NOM1 / RFU, ARL8B / Fold change vs veh, ARL8B / RFU, ZBTB11 / Fold change vs veh, ZBTB11 / RFU, TAMM41 / Fold change vs veh, TAMM41 / RFU, KIAA1704 /// LOC100996395 / Fold change vs veh, KIAA1704 /// LOC100996395 / RFU, ING1 / Fold change vs veh, ING1 / RFU, TRMT61B / Fold change vs veh, TRMT61B / RFU, FUBP3 / Fold change vs veh, FUBP3 / RFU, TP53 / Fold change vs veh, TP53 / RFU, TNKS2 / Fold change vs veh, TNKS2 / RFU, ZFP14 / Fold change vs veh, ZFP14 / RFU, ACTR2 / Fold change vs veh, ACTR2 / RFU, PPP3R1 / Fold change vs veh, PPP3R1 / RFU, PIK3R1 / Fold change vs veh, PIK3R1 / RFU, HNRNPA1 / Fold change vs veh, HNRNPA1 / RFU, RNF170 / Fold change vs veh, RNF170 / RFU, ZNF28 / Fold change vs veh, ZNF28 / RFU, RNGTT / Fold change vs veh, RNGTT / RFU, OGT / Fold change vs veh, OGT / RFU, BRD1 / Fold change vs veh, BRD1 / RFU, MARS / Fold change vs veh, MARS / RFU, ZNF655 / Fold change vs veh, ZNF655 / RFU, FAHD1 / Fold change vs veh, FAHD1 / RFU, BDP1 / Fold change vs veh, BDP1 / RFU, LRRCC1 / Fold change vs veh, LRRCC1 / RFU, ARID1A / Fold change vs veh, ARID1A / RFU, ZNF146 / Fold change vs veh, ZNF146 / RFU, ZNF330 / Fold change vs veh, ZNF330 / RFU, GPN3 / Fold change vs veh, GPN3 / RFU, C9orf123 / Fold change vs veh, C9orf123 / RFU, N4BP2L2 / Fold change vs veh, N4BP2L2 / RFU, ARFIP1 / Fold change vs veh, ARFIP1 / RFU, FAM179B / Fold change vs veh, FAM179B / RFU, BCL10 / Fold change vs veh, BCL10 / RFU, UHRF1BP1L / Fold change vs veh, UHRF1BP1L / RFU, BET1 / Fold change vs veh, BET1 / RFU, CNOT2 / Fold change vs veh, CNOT2 / RFU, ZNF268 / Fold change vs veh, ZNF268 / Fold change vs veh, ZNF507 / RFU, DGCR2 / Fold change vs veh, DGCR2 / RFU, WDSUB1 / Fold change vs veh, WDSUB1 / Fold change vs veh, HSP90B1 /// MIR3652 / RFU, ADSS / Fold change vs veh, ADSS / RFU, GK / Fold change vs veh, GK / RFU, ZNF148 / Fold change vs veh, ZNF148 / RFU, TAF9 / Fold change vs veh, TAF9 / RFU, SLC1A5 / Fold change vs veh, SLC1A5 / RFU, SLMO2 / Fold change vs veh, SLMO2 / RFU, ABCC4 / Fold change vs veh, ABCC4 / RFU, LOC101060439 /// RAP1B / Fold change vs veh, LOC101060439 /// RAP1B / RFU, RFX7 / Fold change vs veh, RFX7 / RFU, GTPBP10 / Fold change vs veh, GTPBP10 / RFU, CNEP1R1 / Fold change vs veh, CNEP1R1 / RFU, BIVM-ERCC5 /// ERCC5 / Fold change vs veh, BIVM-ERCC5 /// ERCC5 / RFU, ILF3 / Fold change vs veh, ILF3 / RFU 11762660_at / Fold change /veh 11762660_at / RFU VCAN (11757783_s_at) / Fold change /veh VCAN (11757783_s_at) / RFU DDX43 (11728927_at) / Fold change /veh DDX43 (11728927_at) / RFU KRT8 (11758188_x_at) / Fold change /veh KRT8 (11758188_x_at) / RFU NKD1 (11759106_at) / Fold change /veh NKD1 (11759106_at) / RFU SRD5A1 (11742802_a_at) / Fold change /veh SRD5A1 (11742802_a_at) / RFU TPSAB1 /// TPSB2 (11721975_s_at) / Fold change /veh TPSAB1 /// TPSB2 (11721975_s_at) / RFU GSTM3 (11746129_a_at) / Fold change /veh GSTM3 (11746129_a_at) / RFU IL23R (11737362_x_at) / Fold change /veh IL23R (11737362_x_at) / RFU TMEM51 (11727254_a_at) / Fold change /veh TMEM51 (11727254_a_at) / RFU PIWIL2 (11732686_x_at) / Fold change /veh PIWIL2 (11732686_x_at) / RFU ORM1 (11744905_x_at) / Fold change /veh ORM1 (11744905_x_at) / RFU CCDC152 (11743942_at) / Fold change /veh CCDC152 (11743942_at) / RFU ECM1 (11717891_a_at) / Fold change /veh ECM1 (11717891_a_at) / RFU IL23R (11748794_a_at) / Fold change /veh IL23R (11748794_a_at) / RFU TNFAIP8L3 (11732012_x_at) / Fold change /veh TNFAIP8L3 (11732012_x_at) / RFU MBOAT4 (11741988_at) / Fold change /veh MBOAT4 (11741988_at) / RFU 11764193_at / Fold change /veh 11764193_at / RFU TMEM53 (11763286_at) / Fold change /veh TMEM53 (11763286_at) / RFU MAGEB2 (11727129_at) / Fold change /veh MAGEB2 (11727129_at) / RFU TMEM200A (11744735_a_at) / Fold change /veh TMEM200A (11744735_a_at) / RFU CCDC152 (11751479_a_at) / Fold change /veh CCDC152 (11751479_a_at) / RFU FAM211A (11726209_a_at) / Fold change /veh FAM211A (11726209_a_at) / RFU RGS16 (11746705_a_at) / Fold change /veh RGS16 (11746705_a_at) / RFU VCAN (11755009_s_at) / Fold change /veh VCAN (11755009_s_at) / RFU RHOB (11743442_s_at) / Fold change /veh RHOB (11743442_s_at) / RFU RGS16 (11720943_a_at) / Fold change /veh RGS16 (11720943_a_at) / RFU RGS16 (11720944_at) / Fold change /veh RGS16 (11720944_at) / RFU, VPS4B / Fold change vs veh, VPS4B / RFU, CREB1 / Fold change vs veh, CREB1 / RFU, DNAJC13 / Fold change vs veh, DNAJC13 / RFU, GNAQ / Fold change vs veh, GNAQ / RFU, CDK5R1 / Fold change vs veh, CDK5R1 / RFU, ZRANB3 / Fold change vs veh, ZRANB3 / RFU, CUL4A / Fold change vs veh, CUL4A / RFU, CCNY / Fold change vs veh, CCNY / RFU, UFL1 / Fold change vs veh, UFL1 / RFU, COG3 / Fold change vs veh, COG3 / RFU, DIAPH2 / Fold change vs veh, DIAPH2 / RFU, SKA2 / Fold change vs veh, SKA2 / RFU, AFF3 / Fold change vs veh, AFF3 / RFU, LMF1 / Fold change vs veh, LMF1 / RFU, IPO11 / Fold change vs veh, IPO11 / RFU, DFFB / Fold change vs veh, DFFB / RFU, FOXP1 / Fold change vs veh, FOXP1 / RFU, CARD8 / Fold change vs veh, CARD8 / RFU, STRN3 / Fold change vs veh, STRN3 / RFU, ADK / Fold change vs veh, ADK / RFU, RASSF2 / Fold change vs veh, RASSF2 / RFU, WIPF1 / Fold change vs veh, WIPF1 / RFU, LARP1B / Fold change vs veh, LARP1B / RFU, RASA1 / Fold change vs veh, RASA1 / RFU, RB1 / Fold change vs veh, RB1 / RFU, PPFIA1 / Fold change vs veh, PPFIA1 / RFU, MAT2A / Fold change vs veh, MAT2A / RFU, CCT5 / Fold change vs veh, CCT5 / RFU, WDR92 / Fold change vs veh, WDR92 / RFU, CUX1 / Fold change vs veh, CUX1 / RFU, TTC7A / Fold change vs veh, TTC7A / RFU, TMEM135 / Fold change vs veh, TMEM135 / RFU, DEPTOR / Fold change vs veh, DEPTOR / RFU, CPM / Fold change vs veh, CPM / RFU, DNAJB6 / Fold change vs veh, DNAJB6 / RFU, CACNA2D3 / Fold change vs veh, CACNA2D3 / RFU, DTX4 / Fold change vs veh, DTX4 / RFU, TFCP2 / Fold change vs veh, TFCP2 / RFU, GMCL1 /// GMCL1P1 / Fold change vs veh, GMCL1 /// GMCL1P1 / RFU, AEBP2 / Fold change vs veh, AEBP2 / RFU, SNHG1 /// SNORD22 /// SNORD25 /// SNORD26 /// SNORD27 /// SNORD28 /// SNORD29 /// SNORD31 / Fold change vs veh, SNHG1 /// SNORD22 /// SNORD25 /// SNORD26 /// SNORD27 /// SNORD28 /// SNORD29 /// SNORD31 / Fold change (Aza/veh), C12orf56 (ProbeSet 11735607_a_at) / Fold change (ACY-1035/veh), C12orf56 (ProbeSet 11735607_a_at) / Fold change (Aza/veh), FGFR1OP (ProbeSet 11751329_s_at) / Fold change (ACY-1035/veh), FGFR1OP (ProbeSet 11751329_s_at) / Fold change (Aza/veh), VPS36 (ProbeSet 11739960_a_at) / Fold change (ACY-1035/veh), VPS36 (ProbeSet 11739960_a_at) / RFU SYPL1 (11715823_x_at) / Fold change /veh SYPL1 (11715823_x_at) / RFU IGFBP7 (11715501_s_at) / Fold change /veh IGFBP7 (11715501_s_at) / RFU REEP3 (11722064_at) / Fold change /veh REEP3 (11722064_at) / RFU IGLL1 (11728026_x_at) / Fold change /veh IGLL1 (11728026_x_at): dose or concentration left out as unconfirmed
Conditions: MV-4-11 cells, 48 hours

Nc1ccc(-c2cccs2)cc1NC(=O)c1ccc2c(c1)cc(C1CC1)n2CCN1CCOCC1 [ACY-1035]
Fold change /veh KRTAP5-7 /// NADSYN1 (11734609_at): 0.96
